Test results taken from article PMC7802074, “Azanitrile Inhibitors of the SmCB1 Protease Target Are Lethal to Schistosoma mansoni: Structural and Mechanistic Insights into Chemotype Reactivity” (ACS Infectious Diseases, 2020).
“And” between values parts separate entries of the source, which are not always exact repeats. Equal values may be shown once.

Legend:
[1] = Cytotoxicity, XTT test, HUVEC; assay type: cell-based; conditions: human, % viability vs. untreated cells, read-out: Cell line viability after 72 h
Procedure: (§1) T able S4. […]
(§2) Cell line viability after 72 h (%)a
(§3) Inhibitor 1 µM 10 µM 1 µM 10 µM
(§4) aCytotoxicity of the inhibitors towards human cell lines are expressed as % viability vs. untreated cells. Cells were treated with
(§5) the indicated concentration of the compounds for 72 h and assayed by means of the XTT test (as described previously 12).
(§6) Standard deviation values were within 10% of the mean of tetraplicates. […]

recombinant SmCB1 = recombinant SmCB1 (Schistosoma mansoni, UniProt Q8MNY2, T185A/T300A); experiment: SmCB1 kinetic inhibition assay with fluorogenic substrate Cbz-Phe-Arg-AMC; assay type: biochemical; conditions: substrate Cbz-Phe-Arg-AMC; for Ki: SmCB1 inhibition Ki, kinetic activity assay, pH 5.5, 37 °C; for SmCB1 inhibition k2nd (second-order rate constant): slow-binding azadipeptide nitriles
recombinant SmCB1, sequence (Q8MNY2 87-340 T185A/T300A): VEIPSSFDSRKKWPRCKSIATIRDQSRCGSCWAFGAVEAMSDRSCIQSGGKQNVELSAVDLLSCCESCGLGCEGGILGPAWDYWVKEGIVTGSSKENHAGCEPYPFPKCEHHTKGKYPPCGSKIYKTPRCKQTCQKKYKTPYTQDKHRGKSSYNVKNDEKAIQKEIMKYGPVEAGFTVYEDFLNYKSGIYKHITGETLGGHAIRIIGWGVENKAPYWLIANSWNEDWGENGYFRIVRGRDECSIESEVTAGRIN
Procedure: Inhibition measurements were performed in triplicates in 96-well microplates (100 μL assay volume) at 37 °C. SmCB1 (20–40 pM) was added to a mixture of the fluorogenic substrate Cbz-Phe-Arg-AMC (20 μM) and an inhibitor (0–100 μM) in 0.1 M sodium acetate, pH 5.5, containing 2.5 mM dithiothreitol and 0.1% PEG 6000. The substrate hydrolysis was monitored in an Infinite M1000 microplate reader (Tecan, Männedorf, Switzerland) at excitation and emission wavelengths of 360 and 465 nm, respectively, for up to 15 and 60 min for fast- and slow-binding inhibitors, respectively. […] For slow-binding inhibitors, an observed first-order rate constant kobs was calculated at each inhibitor concentration by fitting the progress curve to the equation P = vst + (vi – vs)(1 – […])/kobs + d, where P is the product formation, vs is the steady-state velocity, t is the reaction time, vi is the initial velocity, and d is the offset. The inhibition constant Ki′ was determined by nonlinear regression using the equation vs/v0 = 1/(1 + [I]/Ki′). The true inhibition constants Ki were then calculated using the equation Ki = Ki′/(1 + [S]/Km), where [S] is the substrate concentration and Km is the Michaelis constant. The apparent second-order rate constant k2nd′ was determined by fitting to the linear equation kobs = k2nd′[I] + koff, where koff is the first-order rate constants for the dissociation of the enzyme–inhibitor complex and the true constant k2nd was calculated by the correction k2nd = k2nd′(1 + [S]/Km). […] In none of the assay systems did the final concentration of DMSO exceed 1.5%.

[2] = Cytotoxicity, XTT test, HepG2; assay type: cell-based; conditions: human, % viability vs. untreated cells, read-out: Cell line viability after 72 h; for viability at 72 h, 1 µM: HepG2, 1 µM; for viability at 72 h, 10 µM: HepG2, 10 µM
Procedure: as §1, §2, §3, §4, §5, §6

[3] = system: S. mansoni newly transformed schistosomula (NTS); experiment: Schistosome phenotypic assay; assay type: cell-based, Schistosoma mansoni; conditions: for Descriptors Day 1 (phenotypic changes) / Descriptors Day 2 (phenotypic changes): 10 µM inhibitor; for Severity score Day 1 / Severity score Day 2 / Severity score Day 3 / Severity score Day 4: 10 μM inhibitor, scale 0 (no effect) to 4 (severe); for Severity score Day 1: 24 h; for Severity score Day 2: 48 h
Procedure: Newly transformed schistosomula (NTS) of S. mansoni were prepared by mechanically transforming infective larvae (cercariae) as described previously.[70],[71] NTS (200–300 parasites) were incubated in 200 μL of Basch Medium 169 containing 5% FBS, 100 U mL^–1 penicillin, and 100 μg mL^–1 streptomycin at 5% CO2 and 37 °C.[70],[72],[73] Inhibitors were added at the final concentration of 10 μM,[20],[69] and changes in phenotypes were observed every 24 h for up to 4 days. A constrained nomenclature of “descriptors” is used to record the multiple and dynamic changes in movement, shape, and translucence of which the schistosome parasite is capable (Table S3).[70] These descriptors are then converted into an ordinal “severity score” system from 0 (no effect) to 4 (maximum effect), which allows for the relative comparison of compound effects, as described.[74],[75] Images of NTS were captured using a Zeiss Axiovert 40 C inverted microscope (10× objective) and a Zeiss AxioCam MRc digital camera controlled by AxioVision 40 (v. 4.8.1.0) software.

SMILES	viability at 72 h, 1 µM [1] [%]	viability at 72 h, 10 µM [1] [%]	Ki (recombinant SmCB1) [nM]	SmCB1 inhibition k2nd (second-order rate constant) (recombinant SmCB1)	viability at 72 h, 1 µM [2] [%]	viability at 72 h, 10 µM [2] [%]	Descriptors Day 1 (phenotypic changes) [3]	Descriptors Day 2 (phenotypic changes) [3]	Severity score Day 1 [3]	Severity score Day 2 [3]	Severity score Day 3 [3]	Severity score Day 4 [3]
CCCCCN(C#N)N(C)C(=O)[C@H](Cc1ccccc1)NC(=O)OCc1ccccc1 [Compound 9a]	104	81	6.2 ± 0.5	2.1 10^3 M^-1 s^-1 and 2.1 ± 0.3 10^3 M^-1 s^-1	85	78	Deg	Deg	4 and 4/4	4 and 4/4	4	4
CC(C)C[C@H](NC(=O)c1ccc(-c2noc(-c3cccs3)n2)cc1)C(=O)N(C)N(C)C#N [Compound 5a]	91	66	4.8 ± 0.3	29.0 10^3 M^-1 s^-1 and 29.0 ±1.4 10^3 M^-1 s^-1	91	101	Deg	Deg	2	4	4	4
